Structures can show the parent of a compound that is named as a salt.
Molecular target: CK2A1 (CK2α/β) (Homo sapiens, UniProt P68400)
Test: CK2 kinase assay, CK2A1 (CK2α/β)
Format: biochemical
Settings: Table A; read-out: CK2A1 (CK2α/β) (IC50)

Sequence of CK2A1 (CK2α/β) (P68400 whole entry, species assumed): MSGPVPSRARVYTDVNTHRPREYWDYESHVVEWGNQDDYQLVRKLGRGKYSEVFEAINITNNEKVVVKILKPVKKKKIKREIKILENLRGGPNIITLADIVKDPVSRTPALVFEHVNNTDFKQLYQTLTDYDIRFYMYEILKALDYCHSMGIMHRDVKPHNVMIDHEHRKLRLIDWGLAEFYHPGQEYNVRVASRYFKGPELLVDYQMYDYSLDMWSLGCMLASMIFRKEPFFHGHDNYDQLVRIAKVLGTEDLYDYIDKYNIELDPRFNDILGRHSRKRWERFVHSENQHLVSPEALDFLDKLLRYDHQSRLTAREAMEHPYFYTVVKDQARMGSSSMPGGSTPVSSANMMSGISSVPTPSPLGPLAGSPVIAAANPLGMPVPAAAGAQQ
Sequence of CK2A1 (CK2α/β) (P67870 whole entry partner, species assumed): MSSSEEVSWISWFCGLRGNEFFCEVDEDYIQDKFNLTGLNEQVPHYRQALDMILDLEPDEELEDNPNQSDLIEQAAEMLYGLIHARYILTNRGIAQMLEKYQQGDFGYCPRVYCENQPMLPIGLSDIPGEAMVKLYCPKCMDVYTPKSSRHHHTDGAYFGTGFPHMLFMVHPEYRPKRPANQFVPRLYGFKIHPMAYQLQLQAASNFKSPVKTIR

Work on `N#Cc1cnc2c(NC3CC3)nc(Nc3cc(C(F)F)cc(N4CCN(C5(CCO)COC5)CC4)c3Cl)nn12` [Example 270, 2-((2-chloro-5-(difluoromethyl)-3-(4-(3-(2-hydroxyethyl)-3-oxetanyl)-1-piperazinyl)phenyl)amino)-4-(cyclopropylamino)imidazo[2,1-f][1,2,4]triazine-7-carbonitrile] yielded an IC50 of 0.82 nM.
With `CC(O)C1(N2CCN(c3cc(C(F)F)cc(Nc4nc(NC5CC5)c5ncc(C#N)n5n4)c3Cl)CC2)COC1` (stereo not shown) [Example 271, 2-((2-chloro-5-(difluoromethyl)-3-(4-(3-(1-hydroxyethyl)-3-oxetanyl)-1-piperazinyl)phenyl)amino)-4-(cyclopropylamino)imidazo[2,1-f][1,2,4]triazine-7-carbonitrile] the IC50 was 1.22 nM.
With `N#Cc1cnc2c(NC3CC3)nc(Nc3cc(C(F)F)cc(N4CCN(C5CS(=O)(=O)C5)CC4)c3Cl)nn12` [Example 272, 2-((2-chloro-5-(difluoromethyl)-3-(4-(1,1-dioxidothietan-3-yl)piperazin-1-yl)phenyl)amino)-4-(cyclopropylamino)imidazo[2,1-f][1,2,4]triazine-7-carbonitrile] the IC50 was 0.58 nM.
In the case of `CC1(C(=O)N2CCN(c3cc(C(F)F)cc(Nc4nc(NC5CC5)c5ncc(C#N)n5n4)c3Cl)CC2)COC1` [Example 273, 2-((2-chloro-5-(difluoromethyl)-3-(4-((3-methyl-3-oxetanyl)carbonyl)-1-piperazinyl)phenyl)amino)-4-(cyclopropylamino)imidazo[2,1-f][1,2,4]triazine-7-carbonitrile], the IC50 is reported as 2.11 nM.
`N#Cc1cnc2c(NC3CC3)nc(Nc3cc(C(F)F)cc(N4CCOCC4)c3Cl)nn12` [Example 275, 2-((2-chloro-5-(difluoromethyl)-3-(4-morpholinyl)phenyl)amino)-4-(cyclopropylamino)imidazo[2,1-f][1,2,4]triazine-7-carbonitrile] showed an IC50 of 3.36 nM.
Work on `N#Cc1cnc2c(NC3CC3)nc(Nc3cc(C(F)F)cc(N4CCC(C(CO)CO)CC4)c3Cl)nn12` [Example 277, 2-((2-chloro-5-(difluoromethyl)-3-(4-(2-hydroxy-1-(hydroxymethyl)ethyl)-1-piperidinyl)phenyl)amino)-4-(cyclopropylamino)imidazo[2,1-f][1,2,4]triazine-7-carbonitrile] yielded an IC50 of 2.56 nM.
In the case of `CN1CCN(C2CN(c3cc(C(F)F)cc(Nc4nc(NC5CC5)c5ncc(C#N)n5n4)c3Cl)C2)CC1` [Example 278, 2-((2-chloro-5-(difluoromethyl)-3-(3-(4-methyl-1-piperazinyl)-1-azetidinyl)phenyl)amino)-4-(cyclopropylamino)imidazo[2,1-f][1,2,4]triazine-7-carbonitrile], the IC50 is reported as 0.86 nM.
For `N#Cc1cnc2c(NC3CC3)nc(Nc3cc(C(F)F)cc(N4CC(N5CCOCC5)C4)c3Cl)nn12` [Example 279, 2-((2-chloro-5-(difluoromethyl)-3-(3-(4-morpholinyl)-1-azetidinyl)phenyl)amino)-4-(cyclopropylamino)imidazo[2,1-f][1,2,4]triazine-7-carbonitrile], the IC50 was 0.76 nM.
`N#Cc1cc(Nc2nc(NC3CC3)c3ncc(C#N)n3n2)c(Cl)c(N2CC[C@H](N)[C@H](F)C2)c1` [Example 283, 2-((3-((3R,4S)-4-amino-3-fluoropiperidin-1-yl)-2-chloro-5-cyanophenyl)amino)-4-(cyclopropylamino)imidazo[2,1-f][1,2,4]triazine-7-carbonitrile, HCl] gave an IC50 of 0.79 nM.
In the case of `COC(=O)NC1CCN(c2cc(C#N)cc(Nc3nc(NC4CC4)c4ncc(C#N)n4n3)c2Cl)CC1(C)C` (stereo not shown) [Example 286, methyl (1-(2-chloro-5-cyano-3-((7-cyano-4-(cyclopropylamino)imidazo[2,1-f][1,2,4]triazin-2-yl)amino)phenyl)-3,3-dimethyl-4-piperidinyl)carbamate], the IC50 is reported as 4.4 nM.

— patent US9273057B2 (Bristol-Myers Squibb Company, priority 2012, dated 2016)
